# Measurements from the supplement of paper PMC10307832.
# Tests used:
# Experiment in all cases: relative viability (nuclei count vs DMSO), 5 days (fraction); higher = more cells survive
# [1] = test system: 201T
# Procedure, shortened: (§1)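 Relative viability is defined as nuclei in treated wells over nuclei in vehicle wells. Duplicate plates were run and medians reported. Lung cancer cell lines in 1536-well plates were dosed by pin tool one day after seeding, with one drug or with a fixed anchor-drug dose plus five library-drug doses (not always all listed) in √10 steps, and nuclei were counted after 5 days.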
# [2] = test system: NCI-H661
# Procedure, shortened: as §1
# [3] = test system: H3255
# Procedure, shortened: as §1
# [4] = test system: NCI-H1666
# Procedure, shortened: as §1
# [5] = test system: NCI-H1915
# Procedure, shortened: as §1
# [6] = test system: NCI-H650
# Procedure, shortened: as §1
# [7] = test system: COR-L 105
# Procedure, shortened: as §1
# [8] = test system: RERF-LC-KJ
# Procedure, shortened: as §1
# [9] = test system: LCLC-97TM1
# Procedure, shortened: as §1
# [10] = test system: NCI-H2087
# Procedure, shortened: as §1
# [11] = test system: NCI-H2405
# Procedure, shortened: as §1
# [12] = test system: PC-14
# Procedure, shortened: as §1
# [13] = test system: EPLC-272H
# Procedure, shortened: as §1
# [14] = test system: NCI-H23
# Procedure, shortened: as §1
# [15] = test system: NCI-H2126
# Procedure, shortened: as §1
# [16] = test system: NCI-H520
# Procedure, shortened: as §1
# [17] = test system: LC-2-ad
# Procedure, shortened: as §1
# [18] = test system: NCI-H322M
# Procedure, shortened: as §1
# [19] = test system: HCC-827
# Procedure, shortened: as §1
# [20] = test system: NCI-H647
# Procedure, shortened: as §1
# [21] = test system: HCC-78
# Procedure, shortened: as §1
# [22] = test system: NCI-H2347
# Procedure, shortened: as §1
structure (smiles),measurement,setting,value
Clc1ccc(Nc2nnc(Cc3ccncc3)c3ccccc23)cc1 [Vatalanib] + CS(=O)(=O)CCNCc1ccc(-c2ccc3ncnc(Nc4ccc(OCc5cccc(F)c5)c(Cl)c4)c3c2)o1 [Lapatinib] (partner 2 µM),relative viability,[1]; first compound 0.04 µM,1.02
same,relative viability,[1]; first compound 0.1265 µM,0.989
same,relative viability,[1]; first compound 0.4 µM,1.04
same,relative viability,[1]; first compound 1.265 µM,1.05
same,relative viability,[1]; first compound 4 µM,1.07
same,relative viability,[2]; first compound 0.04 µM,0.505
same,relative viability,[2]; first compound 0.1265 µM,0.384
same,relative viability,[2]; first compound 0.4 µM,0.518
same,relative viability,[2]; first compound 1.265 µM,0.524
same,relative viability,[2]; first compound 4 µM,0.496
same,relative viability,[3]; first compound 0.04 µM,0.261
same,relative viability,[3]; first compound 0.1265 µM,0.226
same,relative viability,[3]; first compound 0.4 µM,0.287
same,relative viability,[3]; first compound 1.265 µM,0.247
same,relative viability,[3]; first compound 4 µM,0.263
same,relative viability,[4]; first compound 0.04 µM,0.728
same,relative viability,[4]; first compound 0.1265 µM,0.749
same,relative viability,[4]; first compound 0.4 µM,0.863
same,relative viability,[4]; first compound 1.265 µM,0.529
same,relative viability,[4]; first compound 4 µM,0.545
same,relative viability,[5]; first compound 0.04 µM,0.974
same,relative viability,[5]; first compound 0.1265 µM,0.88
same,relative viability,[5]; first compound 0.4 µM,0.839
same,relative viability,[5]; first compound 1.265 µM,0.93
same,relative viability,[5]; first compound 4 µM,1.01
same,relative viability,[6]; first compound 0.04 µM,0.694
same,relative viability,[6]; first compound 0.1265 µM,0.784
same,relative viability,[6]; first compound 1.265 µM,0.784
same,relative viability,[6]; first compound 4 µM,0.911
same,relative viability,[7]; first compound 0.04 µM,0.375
same,relative viability,[7]; first compound 0.1265 µM,0.301
same,relative viability,[7]; first compound 0.4 µM,0.404
same,relative viability,[7]; first compound 1.265 µM,0.358
same,relative viability,[7]; first compound 4 µM,0.353
same,relative viability,[8]; first compound 0.04 µM,0.812
same,relative viability,[8]; first compound 0.1265 µM,0.842
same,relative viability,[8]; first compound 0.4 µM,0.854
same,relative viability,[8]; first compound 1.265 µM,0.775
same,relative viability,[8]; first compound 4 µM,0.698
same,relative viability,[9]; first compound 0.04 µM,0.818
same,relative viability,[9]; first compound 0.1265 µM,0.847
same,relative viability,[9]; first compound 0.4 µM,0.841
same,relative viability,[9]; first compound 1.265 µM,0.897
same,relative viability,[9]; first compound 4 µM,0.971
same,relative viability,[10]; first compound 0.04 µM,1.12
same,relative viability,[10]; first compound 0.1265 µM,1.02
same,relative viability,[10]; first compound 0.4 µM,1.15
same,relative viability,[10]; first compound 1.265 µM,1.09
same,relative viability,[10]; first compound 4 µM,1.12
same,relative viability,[11]; first compound 0.04 µM,1.04
same,relative viability,[11]; first compound 0.1265 µM,0.984
same,relative viability,[11]; first compound 1.265 µM,0.923
same,relative viability,[11]; first compound 4 µM,1.05
same,relative viability,[12]; first compound 0.04 µM,0.377
same,relative viability,[12]; first compound 0.1265 µM,0.306
same,relative viability,[12]; first compound 0.4 µM,0.334
same,relative viability,[12]; first compound 1.265 µM,0.315
same,relative viability,[12]; first compound 4 µM,0.288
same,relative viability,[13]; first compound 0.04 µM,0.931
same,relative viability,[13]; first compound 0.1265 µM,0.9
same,relative viability,[13]; first compound 0.4 µM,0.23
same,relative viability,[13]; first compound 1.265 µM,0.985
same,relative viability,[13]; first compound 4 µM,1.01
same,relative viability,[14]; first compound 0.04 µM,0.963
same,relative viability,[14]; first compound 0.1265 µM,1.15
same,relative viability,[14]; first compound 0.4 µM,1.3
same,relative viability,[14]; first compound 1.265 µM,0.993
same,relative viability,[14]; first compound 4 µM,1.08
same,relative viability,[15]; first compound 0.04 µM,0.787
same,relative viability,[15]; first compound 0.1265 µM,0.823
same,relative viability,[15]; first compound 0.4 µM,0.773
same,relative viability,[15]; first compound 1.265 µM,0.744
same,relative viability,[15]; first compound 4 µM,0.71
same,relative viability,[16]; first compound 0.04 µM,0.94
same,relative viability,[16]; first compound 0.1265 µM,0.711
same,relative viability,[16]; first compound 0.4 µM,0.891
same,relative viability,[16]; first compound 1.265 µM,0.741
same,relative viability,[16]; first compound 4 µM,0.82
same,relative viability,[17]; first compound 0.04 µM,0.977
same,relative viability,[17]; first compound 0.1265 µM,0.865
same,relative viability,[17]; first compound 0.4 µM,0.952
same,relative viability,[17]; first compound 1.265 µM,0.936
same,relative viability,[17]; first compound 4 µM,0.901
same,relative viability,[18]; first compound 0.04 µM,0.493
same,relative viability,[18]; first compound 0.1265 µM,0.637
same,relative viability,[18]; first compound 0.4 µM,0.509
same,relative viability,[18]; first compound 1.265 µM,0.561
same,relative viability,[18]; first compound 4 µM,0.535
same,relative viability,[19]; first compound 0.04 µM,0.19
same,relative viability,[19]; first compound 0.1265 µM,0.174
same,relative viability,[19]; first compound 0.4 µM,0.182
same,relative viability,[19]; first compound 1.265 µM,0.165
same,relative viability,[19]; first compound 4 µM,0.188
same,relative viability,[20]; first compound 0.04 µM,1.12
same,relative viability,[20]; first compound 0.1265 µM,1.07
same,relative viability,[20]; first compound 0.4 µM,1.26
same,relative viability,[20]; first compound 1.265 µM,1.05
same,relative viability,[20]; first compound 4 µM,1.04
same,relative viability,[21]; first compound 0.04 µM,0.694
same,relative viability,[21]; first compound 0.1265 µM,0.634
same,relative viability,[21]; first compound 0.4 µM,0.937
same,relative viability,[21]; first compound 4 µM,0.478
same,relative viability,[22]; first compound 0.04 µM,1.01
same,relative viability,[22]; first compound 0.1265 µM,0.858
same,relative viability,[22]; first compound 0.4 µM,0.931
same,relative viability,[22]; first compound 1.265 µM,0.907
same,relative viability,[22]; first compound 4 µM,0.833
